Assay [1] concerns carrageenan-induced rat paw edema. Put plainly: Carrageenan-induced rat paw edema model of acute inflammation. The class given is in vivo, Wistar albino rats. To be noted: for % of inhibition of paw edema, 1 h / Rat paw thickness, 1 h / % of inhibition of paw edema, 2 h / Rat paw thickness, 2 h / % of inhibition of paw edema, 3 h / Rat paw thickness, 3 h / % of inhibition of paw edema, 4 h / Rat paw thickness, 4 h / Anti-inflammatory effect on edema diameter compared to the control group (significance): 0.0315 mmol/kg i.p.; for % of inhibition of paw edema, 1 h / % of inhibition of paw edema, 2 h / % of inhibition of paw edema, 3 h / % of inhibition of paw edema, 4 h: vs solvent group; for Rat paw thickness, 1 h: 1 h post-carrageenan; for Rat paw thickness, 1 h / Rat paw thickness, 2 h / Rat paw thickness, 3 h / Rat paw thickness, 4 h / Rat paw thickness, 0 h: mean ± SD; for Rat paw thickness, 2 h: 2 h post-carrageenan; for Rat paw thickness, 3 h: 3 h post-carrageenan; for Rat paw thickness, 4 h: 4 h post-carrageenan; for Anti-inflammatory effect on edema diameter compared to the control group (significance): from 2nd hour to end of observation; for Rat paw thickness, 0 h: immediately before inflammation induction. As for the experimental part:
Inflammation was induced in all rats by an intraplantar injection of 100 μL of freshly prepared 1% carrageenan solution in distilled water into the left hind paw. A total of 56 male Wistar albino rats were randomly divided into five experimental groups (n = 40 rats, 8 rats per subgroup) and two control groups (n = 16 rats, 8 rats per subgroup).
The experimental groups consisted of rats that received synthesized compounds via intraperitoneal injection immediately following carrageenan administration. The solutions of the investigated molecules were prepared by dissolving the compound in distilled water with the addition of a few drops of Tween 80 [18], whereby each rat received 500 μL of the prepared solution. […] The negative control group included rats that received an intraperitoneal injection of the solvent solution (distilled water with a few drops of Tween 80) at the same time point.
To quantify the anti-edematous effect, the thickness of the left paw tissue of each rat was measured at specific time intervals: immediately before inflammation induction (moment 0) and at 1, 2, 3, and 4 h post-induction (moments 1, 2, 3, and 4, respectively). Tissue thickness was assessed in the middle of the rat paw using a digital vernier caliper (Aerospace, Beijing, China).

The target of the next assay is T1, COX-2 (Homo sapiens, UniProt P35354).
T1 construct: purchased Abcam ab283401
T1 sequence (P35354 18-604): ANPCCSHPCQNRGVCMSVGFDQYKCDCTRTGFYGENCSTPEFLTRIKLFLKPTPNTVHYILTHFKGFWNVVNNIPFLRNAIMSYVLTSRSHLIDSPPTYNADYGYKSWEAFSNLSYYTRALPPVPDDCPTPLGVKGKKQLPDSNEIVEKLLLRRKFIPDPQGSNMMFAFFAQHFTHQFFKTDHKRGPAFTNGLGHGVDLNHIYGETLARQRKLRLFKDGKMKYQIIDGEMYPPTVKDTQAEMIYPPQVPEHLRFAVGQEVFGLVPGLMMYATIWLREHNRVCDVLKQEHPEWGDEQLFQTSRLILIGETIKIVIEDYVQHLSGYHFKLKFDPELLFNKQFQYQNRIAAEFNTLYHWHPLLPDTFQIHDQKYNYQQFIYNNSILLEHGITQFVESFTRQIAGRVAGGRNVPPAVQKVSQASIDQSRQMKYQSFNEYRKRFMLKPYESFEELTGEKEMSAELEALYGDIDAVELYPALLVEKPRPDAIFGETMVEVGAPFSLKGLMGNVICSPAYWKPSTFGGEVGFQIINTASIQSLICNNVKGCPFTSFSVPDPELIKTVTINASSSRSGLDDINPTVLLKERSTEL
Put plainly: Fluorometric COX-2 inhibitor screening kit. In kind it is biochemical. To be noted: mean ± standard error, three independent measurements. How it is done: (§1) The inhibitory activity of the tested compounds against COX-1 and COX-2 isoforms was assessed using fluorometric cyclooxygenase inhibitor screening kits (Catalog Numbers ab204698 and ab283401, respectively; Abcam, Cambridge, UK). These assays detect the formation of prostaglandin G2, a product of COX enzymatic activity, via fluorometric measurement.
(§2) Stock solutions of the test compounds were prepared at a concentration of 5 mM in DMSO and subsequently diluted with the same solvent to obtain the test solutions. For the assay preparation, 2 μL of each test solution was diluted with 8 μL of COX assay buffer. The solvent control (SC) consisted of 2 μL of DMSO and 8 μL of assay buffer, while the enzyme control (EC) contained 10 μL of assay buffer alone. Sample wells (S) received 10 μL of the diluted test solutions. All other steps were in accordance with the manufacturer’s protocol and the previously published article. Fluorescence was measured kinetically over a 10 min period at 25 °C, using the excitation and emission wavelengths of 535 nm and 587 nm, respectively. The percentage of inhibition was calculated as follows:(3) % Relative Inhibition=Slope of EC−Slope of S/Slope of EC×100
(§3) Fluorescence measurements were conducted on a BioTek Synergy LX multi-mode reader (Winooski, VT, USA).

The target in a further assay is T2, COX-1 (Ovis aries, UniProt P05979).
T2 sequence (P05979 25-600): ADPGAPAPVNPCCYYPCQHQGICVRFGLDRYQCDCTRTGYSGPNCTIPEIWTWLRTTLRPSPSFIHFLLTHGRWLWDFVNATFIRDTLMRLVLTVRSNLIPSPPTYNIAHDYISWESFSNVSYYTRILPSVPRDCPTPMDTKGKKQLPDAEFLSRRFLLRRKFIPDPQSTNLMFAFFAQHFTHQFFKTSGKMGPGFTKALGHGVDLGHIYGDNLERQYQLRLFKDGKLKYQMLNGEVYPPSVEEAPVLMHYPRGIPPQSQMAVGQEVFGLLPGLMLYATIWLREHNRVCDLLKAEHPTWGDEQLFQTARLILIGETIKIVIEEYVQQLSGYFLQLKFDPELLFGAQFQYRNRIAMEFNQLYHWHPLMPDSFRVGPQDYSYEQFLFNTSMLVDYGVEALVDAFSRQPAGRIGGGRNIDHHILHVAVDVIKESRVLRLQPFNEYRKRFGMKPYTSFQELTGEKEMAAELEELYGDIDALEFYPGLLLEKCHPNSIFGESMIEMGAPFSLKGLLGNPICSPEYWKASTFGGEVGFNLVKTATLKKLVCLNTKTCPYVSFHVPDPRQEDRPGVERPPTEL
Put plainly: Fluorometric COX-1 inhibitor screening kit. The class given is biochemical. On the set-up: purchased Abcam ab204698. To be noted: mean ± standard error, three independent measurements. As for the experimental part:
as §1
as §2, with “Fluorescence was measured kinetically over a 10 min period at 25 °C, using the excitation and emission wavelengths of 535 nm and 587 nm, respectively.” left out
as §3

Where only a bound is given, the exact number is not on record here.

The term IC50 denotes the midpoint of a concentration-inhibition curve. On to `C[C@H](C(=O)NCC(=O)O)c1cccc(C(=O)c2ccccc2)c1` [Compound 1, (S)-(2-(3-benzoylphenyl)propanoyl)glycine], for which, in assay [1], the “% of inhibition of paw edema, 1 h” value is recorded as 5.263%; the “Rat paw thickness, 1 h” value is given as 5.68 ± 0.25 mm; the “% of inhibition of paw edema, 2 h” value came to 13.669%; the “Rat paw thickness, 2 h” value was determined as 5.58 ± 0.34 mm. Also, in assay [1], the “% of inhibition of paw edema, 3 h” value was determined as 16.842%; the “Rat paw thickness, 3 h” value is on record as 5.16 ± 0.34 mm; the “% of inhibition of paw edema, 4 h” value was found to be 18.824%; the “Rat paw thickness, 4 h” value turned out to be 4.50 ± 0.29 mm. In addition, in assay [1], the “Anti-inflammatory effect on edema diameter compared to the control group (significance)” value is “did not achieve an anti-inflammatory effect at any measurement times” and the “Rat paw thickness, 0 h” value came to 3.58 ± 0.13 mm. The IC50 at COX-2 is greater than 100 µM. Also, at COX-1, the half-maximal inhibitory concentration (IC50) is greater than 100 µM.

Regarding `C[C@H](NC(=O)[C@@H](C)c1cccc(C(=O)c2ccccc2)c1)C(=O)O` [Compound 2, ((S)-2-(3-benzoylphenyl)propanoyl)-L-alanine], in assay [1], the “% of inhibition of paw edema, 1 h” value was 16.090%; the “Rat paw thickness, 1 h” value turned out to be 6.52 ± 0.28 mm; the “% of inhibition of paw edema, 2 h” value worked out at 26.619%; the “Rat paw thickness, 2 h” value was 6.36 ± 0.25 mm. In assay [1], the “% of inhibition of paw edema, 3 h” value came to 33.684%; the “Rat paw thickness, 3 h” value was found to be 5.92 ± 0.19 mm; the “% of inhibition of paw edema, 4 h” value is given as 62.941%; the “Rat paw thickness, 4 h” value is recorded as 5.08 ± 0.54 mm. In assay [1], the “Anti-inflammatory effect on edema diameter compared to the control group (significance)” value is “significantly reduced the edema diameter” and the “Rat paw thickness, 0 h” value is on record as 4.66 ± 0.13 mm. Besides, the IC50 at COX-2 was greater than 100 µM. Further, the IC50 on COX-1 is greater than 100 µM.

Turning to `C[C@H](C(=O)N[C@@H](Cc1ccccc1)C(=O)O)c1cccc(C(=O)c2ccccc2)c1` [Compound 3, ((S)-2-(3-benzoylphenyl)propanoyl)-L-phenylalanine], in assay [1], the “% of inhibition of paw edema, 1 h” value was 10.526%; the “Rat paw thickness, 1 h” value was 6.25 ± 0.25 mm; the “% of inhibition of paw edema, 2 h” value worked out at 20.863%; the “Rat paw thickness, 2 h” value worked out at 6.10 ± 0.18 mm. Moreover, in assay [1], the “% of inhibition of paw edema, 3 h” value was 22.807%; the “Rat paw thickness, 3 h” value amounted to 5.73 ± 0.23 mm; the “Rat paw thickness, 4 h” value was 4.93 ± 0.37 mm; the “Rat paw thickness, 0 h” value is listed as 4.27 ± 0.21 mm. Besides, the IC50 on COX-2 was greater than 100 µM. Also, the IC50 on COX-1 was greater than 100 µM.

Consider `C[C@H](C(=O)N[C@@H](Cc1c[nH]c2ccccc12)C(=O)O)c1cccc(C(=O)c2ccccc2)c1` [Compound 4, ((S)-2-(3-benzoylphenyl)propanoyl)-L-tryptophan], for which, in assay [1], the “% of inhibition of paw edema, 1 h” value was determined as 15.038%; the “Rat paw thickness, 1 h” value is listed as 5.90 ± 0.37 mm; the “% of inhibition of paw edema, 2 h” value was found to be 24.460%; the “Rat paw thickness, 2 h” value was 5.77 ± 0.36 mm. Moreover, in assay [1], the “% of inhibition of paw edema, 3 h” value worked out at 28.070%; the “Rat paw thickness, 3 h” value turned out to be 5.38 ± 0.34 mm; the “% of inhibition of paw edema, 4 h” value is listed as 58.824%; the “Rat paw thickness, 4 h” value was determined as 4.48 ± 0.33 mm. Further, in assay [1], the “Anti-inflammatory effect on edema diameter compared to the control group (significance)” value is recorded as “significantly reduced the edema diameter” and the “Rat paw thickness, 0 h” value came to 4.02 ± 0.12 mm. Moreover, the IC50 on COX-2 was determined as 37.5 ± 3.43 µM. Besides, the IC50 on COX-1 is greater than 100 µM.

For `C[C@H](C(=O)NCCCC(=O)O)c1cccc(C(=O)c2ccccc2)c1` [Compound 5, (S)-4-(2-(3-benzoylphenyl)propanamido)butanoic acid], in assay [1], the “% of inhibition of paw edema, 1 h” value is 7.068%; the “Rat paw thickness, 1 h” value is listed as 5.52 ± 0.25 mm; the “% of inhibition of paw edema, 2 h” value is 17.122%; the “Rat paw thickness, 2 h” value is given as 5.38 ± 0.48 mm. Moreover, in assay [1], the “% of inhibition of paw edema, 3 h” value turned out to be 18.947%; the “Rat paw thickness, 3 h” value amounted to 5.00 ± 0.29 mm; the “% of inhibition of paw edema, 4 h” value is listed as 27.647%; the “Rat paw thickness, 4 h” value came out at 4.28 ± 0.37 mm. Moreover, the “Rat paw thickness, 0 h” value in assay [1] was found to be 3.46 ± 0.29 mm. The half-maximal inhibitory concentration (IC50) at COX-2 was greater than 100 µM. The IC50 at COX-1 is greater than 100 µM.

Source of the values: publication PMC12291762 (Antioxidants, 2025).
